Molecular target: T1, nhTMEM16 (Fusarium vanettenii, UniProt C7Z7K1)
T1 construct: gene NECHADRAFT_66456; full open reading frame, N-terminal SBP-Myc-3C tag kept for scrambling assay; expressed in S. cerevisiae FGY217, purified in DDM, reconstituted into liposomes; homodimer
T1 sequence (C7Z7K1 1-735): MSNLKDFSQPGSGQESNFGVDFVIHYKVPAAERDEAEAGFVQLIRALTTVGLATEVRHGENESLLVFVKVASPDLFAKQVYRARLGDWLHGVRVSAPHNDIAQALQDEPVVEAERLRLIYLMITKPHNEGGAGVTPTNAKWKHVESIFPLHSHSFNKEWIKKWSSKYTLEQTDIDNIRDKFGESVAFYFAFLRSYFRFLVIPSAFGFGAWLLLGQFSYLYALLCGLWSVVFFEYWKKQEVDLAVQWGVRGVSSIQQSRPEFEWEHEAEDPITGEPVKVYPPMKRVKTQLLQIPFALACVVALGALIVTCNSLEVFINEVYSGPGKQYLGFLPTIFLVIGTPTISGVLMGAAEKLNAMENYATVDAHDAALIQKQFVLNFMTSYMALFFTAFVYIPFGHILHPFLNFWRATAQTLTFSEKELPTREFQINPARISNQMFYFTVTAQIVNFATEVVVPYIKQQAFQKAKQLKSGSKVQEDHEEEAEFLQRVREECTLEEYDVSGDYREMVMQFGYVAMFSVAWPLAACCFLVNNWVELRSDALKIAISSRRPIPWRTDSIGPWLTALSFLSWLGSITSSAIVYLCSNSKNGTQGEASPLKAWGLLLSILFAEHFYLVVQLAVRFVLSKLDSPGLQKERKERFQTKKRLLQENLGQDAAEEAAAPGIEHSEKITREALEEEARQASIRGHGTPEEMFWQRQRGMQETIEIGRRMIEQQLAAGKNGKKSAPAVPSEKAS
Assay: proteoliposome scrambling assay, dithionite quenching of NBD fluorescence
Type: biochemical
Settings: Ca2+-stimulated with basal activity without Ca2+; E. coli polar lipids/egg PC 3:1, pH 7.5, 300 mM KCl; labelled compound; lipid transport (flip-flop)

## CCCCCCCC/C=C\CCCCCCCC(=O)OC[C@H](COP(=O)(O)OCCN)OC(=O)CCCCCNc1ccc([N+](=O)[O-])c2nonc12 [18:1-06:0 NBD-PE]
  proteoliposome scrambling assay, dithionite quenching of NBD fluorescence: Traces depict sections of the fluorescence decrease of tail-labeled NBD-PE lipids after addition of dithionite
